Measurements published in the supplement of paper PMC11451515.

Legend:
Settings in all cases: 48 h
[1] = test system: NOMO1; assay: cell viability relative to DMSO control; higher = less cytotoxic
Summary of the method: (§1)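 In 1536-well plates, 5 μl of leukemia cells were seeded per well: 500 cells/well for NOMO1 or SEM and 1000 cells/well for P12-Ichikawa. Each line had first been adapted for at least four passages in each medium. Library compounds in DMSO were pin-dosed at 11 threefold concentrations between 47 μM and 0.79 nM, and CellTiter-Glo One luminescence was read after 48 h at 37°C. Viability is a per-plate percentage relative to DMSO wells, with cell-free wells as background.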

[2] = test system: NOMO1; assay: AUC of viability dose-response curve (% viability x log10 dose units); higher = less sensitive
Summary of the method: (§2)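 Area under the curve was integrated by trapezoidal rule from a log-logistic fit of normalised viability, with curves exceeding full viability scaled and quality-control failures removed. The fit had four parameters over log10 doses. Viability came from CellTiter-Glo One luminescence, normalised per plate to DMSO and cell-free wells, after leukemia cells adapted to each medium (500 or 1000 cells/well, 1536-well plates) were exposed to library compounds in DMSO for 48 h at 37°C. The 11 threefold doses ran from 47 μM to 0.79 nM.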

[3] = test system: P12-Ichikawa; assay: as above
Summary of the method: as §2

[4] = test system: SEM cells; assay: as above
Summary of the method: as §2

[5] = test system: P12-Ichikawa; assay: cell viability relative to DMSO control; higher = less cytotoxic
Summary of the method: as §1

[6] = test system: SEM cells; assay: as above
Summary of the method: as §1

CC(C)CC(=O)Nc1n[nH]c2c1CN(C(=O)C1CCN(C)CC1)C2(C)C
[1], HPLM + 10% dialyzed FBS
Settings	cell viability [%]
0.000781 µM	112
0.00234 µM	154
0.00702 µM	113
0.0211 µM	131
0.0632 µM	85.3
0.19 µM	94.5
0.569 µM	103
1.71 µM	61.4
5.12 µM	71.1
15.4 µM	18.5
46.1 µM	3.76

AUC of viability dose-response curve
Settings	[2]	[3]	[4]
HPLM + 10% dialyzed FBS	331	311	320
RPMI 5 mM glucose + 10% FBS	370	351	338
RPMI 5 mM glucose + 10% dialyzed FBS	325	345	338

COC(=O)CCC1=C(C)C2=CC3=NC(=CC4=C(C)C(=C([NH]4)C=C\5N=C(C=C1[NH]2)\C(=C5C)CCC(O)=O)C=C)\C6=C\C=C(/[C@@H](C(=O)OC)[C@@]36C)C(=O)OC
cell viability [%]
Settings	[1]	[5]	[6]
HPLM + 10% dialyzed FBS, 0.000781 µM	95.4	98.8	88.5
HPLM + 10% dialyzed FBS, 0.00234 µM	94.3	103	83.3
HPLM + 10% dialyzed FBS, 0.00702 µM	91.5	101	89.7
HPLM + 10% dialyzed FBS, 0.0211 µM	91.9	111	85.4
HPLM + 10% dialyzed FBS, 0.0632 µM	92.6	102	94.2
HPLM + 10% dialyzed FBS, 0.19 µM	97	105	94.4
HPLM + 10% dialyzed FBS, 0.569 µM	103	109	98
HPLM + 10% dialyzed FBS, 1.71 µM	80.3	106	95.7
HPLM + 10% dialyzed FBS, 5.12 µM	78.6	101	91.7
HPLM + 10% dialyzed FBS, 15.4 µM	38.9	98.7	82.7
HPLM + 10% dialyzed FBS, 46.1 µM	14.1	93.3	77.4
RPMI 5 mM glucose + 10% FBS, 0.000781 µM	86.6	93.3	89.4
RPMI 5 mM glucose + 10% FBS, 0.00234 µM	89.3	101	92
RPMI 5 mM glucose + 10% FBS, 0.00702 µM	91.9	104	91.8
RPMI 5 mM glucose + 10% FBS, 0.0211 µM	97.5	100	94.9
RPMI 5 mM glucose + 10% FBS, 0.0632 µM	116	97.1	95.2
RPMI 5 mM glucose + 10% FBS, 0.19 µM	109	100	98.1
RPMI 5 mM glucose + 10% FBS, 0.569 µM	101	103	87.7
RPMI 5 mM glucose + 10% FBS, 1.71 µM	102	96.8	98.9
RPMI 5 mM glucose + 10% FBS, 5.12 µM	101	88.9	95.4
RPMI 5 mM glucose + 10% FBS, 15.4 µM	55.2	77.1	89.7
RPMI 5 mM glucose + 10% FBS, 46.1 µM	14.5	60.9	75.4
RPMI 5 mM glucose + 10% dialyzed FBS, 0.000781 µM	85.4	88	86.6
RPMI 5 mM glucose + 10% dialyzed FBS, 0.00234 µM	99	94.7	90.7
RPMI 5 mM glucose + 10% dialyzed FBS, 0.00702 µM	87	97.8	101
RPMI 5 mM glucose + 10% dialyzed FBS, 0.0211 µM	98.4	95.6	108
RPMI 5 mM glucose + 10% dialyzed FBS, 0.0632 µM	88	103	105
RPMI 5 mM glucose + 10% dialyzed FBS, 0.19 µM	90.8	96.9	122
RPMI 5 mM glucose + 10% dialyzed FBS, 0.569 µM	93.7	105	104
RPMI 5 mM glucose + 10% dialyzed FBS, 1.71 µM	86.6	104	108
RPMI 5 mM glucose + 10% dialyzed FBS, 5.12 µM	94.9	94.6	105
RPMI 5 mM glucose + 10% dialyzed FBS, 15.4 µM	45.7	84.9	91.3
RPMI 5 mM glucose + 10% dialyzed FBS, 46.1 µM	18.4	82.9	80.4

AUC of viability dose-response curve
Settings	[2]	[3]	[4]
HPLM + 10% dialyzed FBS	393	469	428
RPMI 5 mM glucose + 10% FBS	433	450	441
RPMI 5 mM glucose + 10% dialyzed FBS	397	457	473

CC(C)[C@H](O)C(=O)N[C@@H](C)C(=O)N[C@@H]1C(=O)N(C)CCc2ccccc21
cell viability [%]
Settings	[1]	[5]	[6]
HPLM + 10% dialyzed FBS, 0.000781 µM	93.5	112	118
HPLM + 10% dialyzed FBS, 0.00234 µM	132	114	122
HPLM + 10% dialyzed FBS, 0.00702 µM	111	111	127
HPLM + 10% dialyzed FBS, 0.0211 µM	113	112	111
HPLM + 10% dialyzed FBS, 0.0632 µM	113	115	132
HPLM + 10% dialyzed FBS, 0.19 µM	125	108	82.7
HPLM + 10% dialyzed FBS, 0.569 µM	109	102	119
HPLM + 10% dialyzed FBS, 1.71 µM	101	90.7	110
HPLM + 10% dialyzed FBS, 5.12 µM	101	110	74
HPLM + 10% dialyzed FBS, 15.4 µM	92.6	91.4	110
HPLM + 10% dialyzed FBS, 46.1 µM	76.7	90.7	107
RPMI 5 mM glucose + 10% FBS, 0.000781 µM	98.7	114	–
RPMI 5 mM glucose + 10% FBS, 0.00234 µM	119	123	–
RPMI 5 mM glucose + 10% FBS, 0.00702 µM	117	122	–
RPMI 5 mM glucose + 10% FBS, 0.0211 µM	114	109	–
RPMI 5 mM glucose + 10% FBS, 0.0632 µM	117	119	–
RPMI 5 mM glucose + 10% FBS, 0.19 µM	98.5	116	–
RPMI 5 mM glucose + 10% FBS, 0.569 µM	125	104	–
RPMI 5 mM glucose + 10% FBS, 1.71 µM	105	113	–
RPMI 5 mM glucose + 10% FBS, 5.12 µM	108	106	–
RPMI 5 mM glucose + 10% FBS, 15.4 µM	110	97.7	–
RPMI 5 mM glucose + 10% FBS, 46.1 µM	92.5	105	–
RPMI 5 mM glucose + 10% dialyzed FBS, 0.000781 µM	112	116	120
RPMI 5 mM glucose + 10% dialyzed FBS, 0.00234 µM	109	113	135
RPMI 5 mM glucose + 10% dialyzed FBS, 0.00702 µM	123	113	116
RPMI 5 mM glucose + 10% dialyzed FBS, 0.0211 µM	112	105	103
RPMI 5 mM glucose + 10% dialyzed FBS, 0.0632 µM	110	96.6	119
RPMI 5 mM glucose + 10% dialyzed FBS, 0.19 µM	114	106	94.6
RPMI 5 mM glucose + 10% dialyzed FBS, 0.569 µM	108	102	97.5
RPMI 5 mM glucose + 10% dialyzed FBS, 1.71 µM	108	99.6	109
RPMI 5 mM glucose + 10% dialyzed FBS, 5.12 µM	112	94.6	38.1
RPMI 5 mM glucose + 10% dialyzed FBS, 15.4 µM	103	98.8	106
RPMI 5 mM glucose + 10% dialyzed FBS, 46.1 µM	97.2	92.7	95.7

AUC of viability dose-response curve
Settings	[2]	[3]	[4]
HPLM + 10% dialyzed FBS	444	447	431
RPMI 5 mM glucose + 10% FBS	472	450	441
RPMI 5 mM glucose + 10% dialyzed FBS	460	423	393
